Data: patent US9409952B2, “Peptide-compound cyclization method” (Chugai Seiyaku Kabushiki Kaisha, priority 2011, dated 2016)
Starred links: 1 amine or outer side, 2 acyl side, 3 side chain; linkers in the order of their positions; H or OH if unused. Positions of bridges follow the written chain, without caps; N, C: chain ends. Non-standard residues stand in square brackets, D forms with d. Residues, ends and D or L forms follow the SMILES beside them. *: point of attachment. NMeF = CN[C@@H](Cc1ccccc1)C(=O)O; NMeGABA = CN(CCCC(=O)[*:2])[*:1]; NMeβAla = CN(CCC(=O)[*:2])[*:1]; NMeL = CN[C@@H](CC(C)C)C(=O)O; NMeV = CN[C@H](C(=O)O)C(C)C; NMeA = CN[C@@H](C)C(=O)O; Piperidide = C1CCN(*)CC1; dNMeA = CN[C@H](C)C(=O)O; Sar = CNCC(=O)O

How the values were obtained:
[1] = Metabolic stability in human hepatic microsome; assay type: in vitro ADME; conditions: microsomes, pH 7.4; human hepatic microsome, NADPH(+); read-out: CL NADPH(+)
[2] = PAMPA (parallel artificial membrane permeability assay); assay type: in vitro ADME; conditions: PAMPA; membrane permeation rate (Pe); 50 mM MOPSO buffer pH 6.5 with 5.0% glycocholic acid, 37° C., 18 hours; read-out: iPAMPA Pe
Summary of the method: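 Artificial membrane was 10% (w/v) egg lecithin plus 0.5% (w/v) cholesterol in dodecane on a PVDF filter. A 10 mM DMSO stock was added at 0.5% (v/v) to donor buffer (50 mM MOPSO, pH 6.5, 5.0% glycocholic acid). After 18 h at 37 °C, LC/MS or LC/UV gave donor and acceptor levels for Pe.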

SMILES	microsomal CLint at 1 uM [1] [µL/min/mg]	Papp at 18 hours, 50 µM [2] [×10⁻⁶ cm/s]
CC(C)C[C@H]1C(=O)N(C)[C@@H](C(C)C)C(=O)N[C@@H](Cc2ccccc2)C(=O)N[C@H](C(=O)N(C)[C@@H](Cc2ccccc2)C(=O)N[C@@H](C)C(=O)N2CCCCC2)CC(=O)N(C)CCCC(=O)N[C@@H](C(C)C)C(=O)N(C)[C@@H](CC(C)C)C(=O)N[C@@H]([C@@H](C)O)C(=O)N(C)[C@@H](Cc2ccccc2)C(=O)NCC(=O)N1C [DP-372] ([NMeGABA]V[NMeL]T[NMeF]G[NMeL][NMeV]FD[NMeF]A-Piperidide; lactam N-10)	78	42
CC[C@H](C)[C@@H]1NC(=O)CN(C)C(=O)[C@H](Cc2ccccc2)N(C)C(=O)[C@H]([C@@H](C)O)NC(=O)[C@H](CC(C)C)N(C)C(=O)[C@H](C)N(C)C(=O)CCCN(C)C(=O)C[C@@H](C(=O)N(C)[C@@H](Cc2ccccc2)C(=O)N[C@@H](C)C(=O)N2CCCCC2)NC(=O)[C@H](C(C)C)N(C)C(=O)[C@H](CC(C)C)N(C)C1=O [DP-374] ([NMeGABA][NMeA][NMeL]T[NMeF][Sar]I[NMeL][NMeV]D[NMeF]A-Piperidide; lactam N-10)	53	24
CC(C)C[C@H]1C(=O)N[C@@H](Cc2ccccc2)C(=O)N(C)[C@@H](C(C)C)C(=O)N(C)[C@@H](C)C(=O)N(C)[C@@H](Cc2ccccc2)C(=O)N[C@@H]([C@@H](C)O)C(=O)NCC(=O)N[C@H](C(=O)N(C)[C@@H](Cc2ccccc2)C(=O)N[C@@H](C)C(=O)N2CCCCC2)CC(=O)N(C)[C@@H](C)C(=O)N[C@@H](C)C(=O)N1C [DP-375] ([NMeA]A[NMeL]F[NMeV][NMeA][NMeF]TGD[NMeF]A-Piperidide; lactam N-10)	39	19
CC(C)C[C@H]1C(=O)N(C)[C@@H](C)C(=O)N[C@H](C(=O)N(C)[C@@H](Cc2ccccc2)C(=O)N[C@@H](C)C(=O)N2CCCCC2)CC(=O)N(C)[C@@H](C)C(=O)N(C)[C@@H](C)C(=O)N(C)[C@@H](Cc2ccccc2)C(=O)N[C@@H]([C@@H](C)O)C(=O)N(C)[C@@H](C)C(=O)N(C)[C@@H](Cc2ccccc2)C(=O)N[C@@H](C)C(=O)N1C [DP-377] ([NMeA][NMeA][NMeF]T[NMeA][NMeF]A[NMeL][NMeA]D[NMeF]A-Piperidide; lactam N-10)	70	23
CC(C)C[C@H]1C(=O)NCC(=O)N[C@H](C(=O)N(C)[C@@H](Cc2ccccc2)C(=O)N[C@@H](C)C(=O)N2CCCCC2)CC(=O)N[C@@H](C)C(=O)N[C@@H]([C@@H](C)O)C(=O)N(C)[C@@H](C)C(=O)N(C)[C@@H](Cc2ccccc2)C(=O)N[C@@H](C(C)C)C(=O)N(C)[C@@H](Cc2ccccc2)C(=O)N1C [DP-378] (AT[NMeA][NMeF]V[NMeF][NMeL]GD[NMeF]A-Piperidide; lactam N-9)	219	31
CC(C)C[C@H]1C(=O)N[C@H](C(=O)N(C)[C@@H](Cc2ccccc2)C(=O)N[C@@H](C)C(=O)N2CCCCC2)CC(=O)N(C)CCC(=O)N[C@@H]([C@@H](C)O)C(=O)N(C)[C@@H](C)C(=O)N(C)[C@@H](CC(C)C)C(=O)N[C@@H](C(C)C)C(=O)N(C)[C@@H](Cc2ccccc2)C(=O)N[C@@H](Cc2ccccc2)C(=O)N1C [DP-379] ([NMeβAla]T[NMeA][NMeL]V[NMeF]F[NMeL]D[NMeF]A-Piperidide; lactam N-9)	236	41
CC(C)C[C@H]1C(=O)N[C@@H](C(C)C)C(=O)N[C@H](C(=O)N(C)[C@@H](Cc2ccccc2)C(=O)N[C@@H](C)C(=O)N2CCCCC2)CC(=O)N[C@H](C)C(=O)N(C)[C@@H](C)C(=O)N(C)[C@@H](Cc2ccccc2)C(=O)N(C)[C@@H](CC(C)C)C(=O)N[C@@H]([C@@H](C)O)C(=O)N(C)CC(=O)N1C [DP-380] ([dA][NMeA][NMeF][NMeL]T[Sar][NMeL]VD[NMeF]A-Piperidide; lactam N-9)	58	17
CC(C)C[C@H]1C(=O)N[C@H](C(=O)N(C)[C@@H](Cc2ccccc2)C(=O)N[C@@H](C)C(=O)N2CCCCC2)CC(=O)N(C)[C@H](C)C(=O)N(C)[C@@H](CC(C)C)C(=O)N(C)[C@@H](C)C(=O)N[C@@H]([C@@H](C)O)C(=O)N[C@@H](Cc2ccccc2)C(=O)N(C)[C@@H](Cc2ccccc2)C(=O)N[C@@H](C(C)C)C(=O)N1C [DP-381] ([dNMeA][NMeL][NMeA]TF[NMeF]V[NMeL]D[NMeF]A-Piperidide; lactam N-9)	84	45
CC(C)C[C@H]1C(=O)NCC(=O)N[C@H](C(=O)N(C)[C@@H](Cc2ccccc2)C(=O)N[C@@H](C)C(=O)N2CCCCC2)CC(=O)N[C@H](C(C)C)C(=O)N[C@@H]([C@@H](C)O)C(=O)N(C)[C@@H](C)C(=O)N(C)[C@@H](Cc2ccccc2)C(=O)N[C@@H](C(C)C)C(=O)N(C)[C@@H](Cc2ccccc2)C(=O)N1C [DP-382] ([dV]T[NMeA][NMeF]V[NMeF][NMeL]GD[NMeF]A-Piperidide; lactam N-9)	188	49
CC(C)C[C@H]1C(=O)N[C@@H](Cc2ccccc2)C(=O)N[C@H](C(=O)N(C)[C@@H](Cc2ccccc2)C(=O)N[C@@H](C)C(=O)N2CCCCC2)CC(=O)N(C)CCCC(=O)N[C@@H]([C@@H](C)O)C(=O)N(C)CC(=O)N(C)[C@@H](C)C(=O)N[C@@H](C(C)C)C(=O)N(C)[C@@H](Cc2ccccc2)C(=O)N1C [DP-383] ([NMeGABA]T[Sar][NMeA]V[NMeF][NMeL]FD[NMeF]A-Piperidide; lactam N-9)	138	14
CC[C@H](C)[C@@H]1NC(=O)[C@H](C)N(C)C(=O)[C@H]([C@@H](C)O)NC(=O)[C@H](Cc2ccccc2)N(C)C(=O)[C@H](CC(C)C)N(C)C(=O)CCCN(C)C(=O)C[C@@H](C(=O)N(C)[C@@H](Cc2ccccc2)C(=O)N[C@@H](C)C(=O)N2CCCCC2)NC(=O)[C@H](C(C)C)N(C)C(=O)[C@H](CC(C)C)N(C)C1=O [DP-384] ([NMeGABA][NMeL][NMeF]T[NMeA]I[NMeL][NMeV]D[NMeF]A-Piperidide; lactam N-9)	214	26
CC(C)C[C@H]1C(=O)N[C@H](C(=O)N(C)[C@@H](Cc2ccccc2)C(=O)N[C@@H](C)C(=O)N2CCCCC2)CC(=O)N(C)CCCC(=O)N[C@@H](C(C)C)C(=O)N(C)[C@@H](Cc2ccccc2)C(=O)N(C)[C@@H](CC(C)C)C(=O)N[C@@H]([C@@H](C)O)C(=O)N(C)[C@@H](C)C(=O)N(C)CC(=O)N1C [DP-385] ([NMeGABA]V[NMeF][NMeL]T[NMeA][Sar][NMeL]D[NMeF]A-Piperidide; lactam N-9)	102	18
CC(C)C[C@H]1C(=O)N[C@H](C(=O)N(C)[C@@H](Cc2ccccc2)C(=O)N[C@@H](C)C(=O)N2CCCCC2)CC(=O)N(C)[C@@H](C)C(=O)N[C@@H]([C@@H](C)O)C(=O)N(C)[C@@H](C)C(=O)N(C)[C@@H](CC(C)C)C(=O)N[C@@H](C(C)C)C(=O)N(C)[C@@H](Cc2ccccc2)C(=O)N[C@@H](Cc2ccccc2)C(=O)N1C [DP-386] ([NMeA]T[NMeA][NMeL]V[NMeF]F[NMeL]D[NMeF]A-Piperidide; lactam N-9)	222	54
CC(C)C[C@H]1C(=O)N(C)[C@@H](C)C(=O)N[C@H](C(=O)N(C)[C@@H](Cc2ccccc2)C(=O)N[C@@H](C)C(=O)N2CCCCC2)CC(=O)N(C)CC(=O)N[C@@H](C(C)C)C(=O)N(C)[C@@H](Cc2ccccc2)C(=O)N(C)[C@@H](CC(C)C)C(=O)N[C@@H]([C@@H](C)O)C(=O)N(C)CC(=O)N1C [DP-388] ([Sar]V[NMeF][NMeL]T[Sar][NMeL][NMeA]D[NMeF]A-Piperidide; lactam N-9)	41	11
CC[C@H](C)[C@@H]1NC(=O)[C@H](C)NC(=O)C[C@@H](C(=O)N(C)[C@@H](Cc2ccccc2)C(=O)N(C)[C@@H](Cc2ccccc2)C(=O)N[C@@H](C)C(=O)N2CCCCC2)NC(=O)[C@H](C)NC(=O)[C@H](C)N(C)C(=O)[C@H](CC(C)C)N(C)C(=O)CN(C)C(=O)[C@H]([C@@H](C)O)NC(=O)[C@H](C(C)C)N(C)C(=O)[C@H](Cc2ccccc2)N(C)C1=O [DP-389] (AI[NMeF][NMeV]T[Sar][NMeL][NMeA]AD[NMeF][NMeF]A-Piperidide; lactam N-10)	14	15
CC(C)C[C@H]1C(=O)NCC(=O)N(C)[C@@H](C(C)C)C(=O)N[C@@H]([C@@H](C)O)C(=O)N[C@@H](Cc2ccccc2)C(=O)N[C@H](C(=O)N(C)[C@@H](Cc2ccccc2)C(=O)N(C)[C@@H](Cc2ccccc2)C(=O)N[C@@H](C)C(=O)N2CCCCC2)CC(=O)N(C)CCC(=O)N(C)[C@@H](C(C)C)C(=O)N[C@@H](C(C)C)C(=O)N(C)[C@@H](Cc2ccccc2)C(=O)N1C [DP-390] ([NMeβAla][NMeV]V[NMeF][NMeL]G[NMeV]TFD[NMeF][NMeF]A-Piperidide; lactam N-10)	52	3.5
CC(C)C[C@H]1C(=O)N[C@H](C(=O)N(C)[C@@H](Cc2ccccc2)C(=O)N(C)[C@@H](Cc2ccccc2)C(=O)N[C@@H](C)C(=O)N2CCCCC2)CC(=O)N(C)CCC(=O)N[C@@H](C)C(=O)N(C)[C@@H](Cc2ccccc2)C(=O)N(C)[C@@H](C(C)C)C(=O)NCC(=O)N[C@@H]([C@@H](C)O)C(=O)N(C)[C@@H](C)C(=O)N[C@@H](C(C)C)C(=O)N1C [DP-391] ([NMeβAla]A[NMeF][NMeV]GT[NMeA]V[NMeL]D[NMeF][NMeF]A-Piperidide; lactam N-10)	14	4.5
CC[C@H](C)[C@@H]1NC(=O)CCCN(C)C(=O)C[C@@H](C(=O)N(C)[C@@H](Cc2ccccc2)C(=O)N(C)[C@@H](Cc2ccccc2)C(=O)N[C@@H](C)C(=O)N2CCCCC2)NC(=O)[C@H](C(C)C)N(C)C(=O)[C@H](CC(C)C)N(C)C(=O)[C@H](C)NC(=O)CN(C)C(=O)[C@H]([C@@H](C)O)NC(=O)[C@H](Cc2ccccc2)N(C)C(=O)[C@H](C)N(C)C1=O [DP-392] ([NMeGABA]I[NMeA][NMeF]T[Sar]A[NMeL][NMeV]D[NMeF][NMeF]A-Piperidide; lactam N-10)	18	20
